Test results reported in patent publication US6903111B2 (priority 2001, dated 2005).

Compared with `O=C(C[C@H](Cc1ccccc1)Nc1c(O)c(=O)c1=O)N1CC2CCC1CC2`, `CN(c1c(O)c(=O)c1=O)[C@H](CC(=O)N1CC2CCC1CC2)Cc1ccccc1` [Compound 52, N-(3-hydroxy-3-cyclobutene-1,2-dione-4-yl)-N-methyl-(1S)-[2-(isoquinuclidin-2-yl)-2-oxo-ethyl]-phenyl ethylamine] is lower in melting point: 156 to 158 °C for the first, 153 to 155 °C for the second.

First: O=C(O)[C@@H](CCOc1ccccc1)CC(=O)N1CC2CCC1CC2
Second: O=C(O)[C@H](CCOc1ccccc1)CC(=O)N1CC2CCC1CC2
The melting point of the first is higher: 117 to 119 °C for the first, 115 to 117 °C for the second.

First: O=C(O)C(C[C@H](CC(=O)N1CC2CCC1CC2)Cc1ccccc1)C(=O)O
Second: O=C(O)C(O)[C@H](CC(=O)N1CC2CCC1CC2)Cc1ccccc1 (stereo partly drawn)
The melting point of the first is higher: 78 to 80 °C for the first, 60 to 61 °C for the second.

First: O=C(O)[C@H](CC(=O)N1CC2CCC1CC2)Oc1ccccc1
Second: O=C(O)[C@H](CC(=O)N1CC2CCC1CC2)Cc1ccccc1 [Compound 1, (2S)-2-benzyl-4-(isoquinuclidin-2-yl)-4-oxo-butanoic acid]
The melting point of the first is higher: 140 to 142 °C for the first, 93 to 95 °C for the second.

Compared with `O=C(O)CC[C@H](CC(=O)N1CC2CCC1CC2)Cc1ccccc1`, `O=C(O)/C=C/[C@H](CC(=O)N1CC2CCC1CC2)Cc1ccccc1` is lower in melting point: 79 to 81 °C for the first, 52 to 53 °C for the second.

Compared with `O=C(O)[C@H](CCN1CC2CCC1CC2)Cc1ccccc1` [Compound 47], `O=C(O)C(=O)N[C@H](CC(=O)N1CC2CCC1CC2)Cc1ccccc1` is lower in melting point: 171 to 174 °C for the first, 156 to 159 °C for the second.

First: O=C(Nc1ccc(NS(=O)(=O)C(F)(F)F)cc1)[C@H](CC(=O)N1CC2CCC1CC2)Cc1ccccc1
Second: O=C(Oc1ccc(NS(=O)(=O)C(F)(F)F)cc1)[C@H](CC(=O)N1CC2CCC1CC2)Cc1ccccc1
The melting point of the first is higher: 136 to 138 °C for the first, 60 to 62 °C for the second.

Compared with `O=C(O)C(=O)Nc1ccc(C(=O)N[C@@H](CC(=O)N2CC3CCC2CC3)Cc2ccccc2)cc1`, `O=C(Cc1ccc(NC(=O)C(=O)O)cc1)N[C@@H](CC(=O)N1CC2CCC1CC2)Cc1ccccc1` is lower in melting point: 200 to 201 °C for the first, 79 to 80 °C for the second.

Compared with `O=C(Oc1ccc(O)cc1)[C@H](CC(=O)N1CC2CCC1CC2)Cc1ccccc1` [Compound 18, p-hydroxy phenyl (2S)-2-benzyl-4-(isoquinuclidine-2-yl)-4-oxo-butyrate], `O=C(Oc1ccccc1)[C@H](CC(=O)N1CC2CCC1CC2)Cc1ccccc1` [Compound 15, (2S)-2-benzyl-4-(isoquinuclidin-2-yl)-4-oxo-butanoic acid phenylester] is higher in melting point: 61 to 64 °C for the first, 112 to 113 °C for the second.

First: O=C(OC1CCCCC1)[C@H](CC(=O)N1CC2CCC1CC2)Cc1ccccc1 [Compound 14]
Second: O=C(Nc1nccs1)[C@H](CC(=O)N1CC2CCC1CC2)Cc1ccccc1
The melting point of the first is higher: 92 to 95 °C for the first, 69 to 72 °C for the second.

Compared with `O=C(Cc1ccc(NS(=O)(=O)C(F)(F)F)cc1)N[C@H](CC(=O)N1CC2CCC1CC2)Cc1ccccc1`, `O=C(C[C@@H](Cc1ccccc1)NS(=O)(=O)C(F)(F)F)N1CC2CCC1CC2` is higher in melting point: 78 to 80 °C for the first, 128 to 130 °C for the second.

First: O=C(O)CC(=O)N[C@H](CC(=O)N1CC2CCC1CC2)Cc1ccccc1
Second: CS(=O)(=O)N[C@@H](CC(=O)N1CC2CCC1CC2)Cc1ccccc1
The melting point of the first is higher: 149 to 151 °C for the first, 129 to 130 °C for the second.

First: O=C(O)C(C[C@H](CC(=O)N1CC2CCC1CC2)CC1CCCCC1)C(=O)O
Second: O=C(C[C@@H](C=NOS(=O)(=O)O)Cc1ccccc1)N1CC2CCC1CC2
The melting point of the first is lower: 84 to 85 °C for the first, 148 to 151 °C for the second.

First: CCOc1cc(CC(=O)N[C@H](CC(=O)N2CC3CCC2CC3)Cc2ccccc2)ccc1C(=O)O
Second: CS(=O)(=O)N[C@H](CC(=O)N1CC2CCC1CC2)Cc1ccccc1
The melting point of the first is lower: 100 to 103 °C for the first, 127 to 129 °C for the second.

Compared with `O=C(C[C@H](Cc1ccccc1)NS(=O)(=O)C(F)(F)F)N1CC2CCC1CC2`, `O=C(Nc1ccncc1)[C@H](CC(=O)N1CC2CCC1CC2)Cc1ccccc1` is higher in melting point: 155 to 158 °C for the first, 171 to 172 °C for the second.

First: O=C(Nc1cc(F)c(O)c(F)c1)[C@H](CC(=O)N1CC2CCC1CC2)Cc1ccccc1
Second: O=C(Nc1nccs1)[C@H](CC(=O)N1CC2CCC1CC2)Oc1ccccc1
The melting point of the first is higher: 118 to 120 °C for the first, 60 to 65 °C for the second.

Work on `O=C([O-])[C@H](CC(=O)N1CC2CCC1CC2)Cc1ccccc1.[Na+]` [Compound 11] yielded a melting point greater than 250 °C.
